Results taken from US10954269B2, “Anti-inflammatory tripeptides” (Dr. August Wolff Gmbh & Co. KG Arzneimittel, priority 2013, dated 2021).

Legend:
[1] = system: primary human T-cells; assay: Cytokine secretion on protein level in activated primary human T-cells (13-plex FACS / Luminex, supernatant); format: cell-based; conditions: for IL-1 cytokine concentration / IL-2 cytokine concentration / IL-4 cytokine concentration / IL-5 cytokine concentration / IL-6 cytokine concentration / IL-9 cytokine concentration / IL-10 cytokine concentration / IL-12p70 cytokine concentration / IL-13 cytokine concentration / IL-17 cytokine concentration / IL-22 cytokine concentration / TNF-α cytokine concentration / INF-α cytokine concentration: substance 10^−9M
Experimental: (§1) Primary T-cells were isolated from peripheral blood from healthy volunteers and from secondary lymphatic organs from naïve C57BL/6 mice, respectively. The cells were stimulated with phorbol-12-myristate-13-acetate (PMA)/Ionomycin and interferon-gamma (IFN-γ), respectively, for 48 h to activate the cells. The activated cells release pro-inflammatory cytokines. In parallel a human (HaCaT) keratinocyte cell line was activated with PMA/Ionomycin and IFN-γ, respectively, too. […] At the same time release of anti-inflammatory IL-10 was inhibited. Two days after addition of PMA/Ionomycin and IFN-γ, respectively, the induction of IL-1 secretion was determined in the supernatant for proving that the cells are activated. […] The anti-inflammatory properties of the tripeptides were determined 48 h and 72 h following stimulation. A 13-plex-system based FACS analysis was used for showing the reduced secretion of pro-inflammatory cytokines in the supernatant. Data for IL-1, IL-2, IL-6, IL-12p70 IL-17, IFN-γ and TNF-α are considered to be most relevant. Thus, analysis of the anti-inflammatory properties of the tripeptides is preferably based on the results obtained for these analytes. […] Using this method the gene expression of pro-inflammatory markers like IL-6, IL-17, IFN-γ and TNF-α was determined.
(§2) In a third experiment murine and human T cells and HaCaT cells were stimulated with PMA/Ionomycin and treated with Examples 14, 15, 16 and 17 at 10^−7 M, 10^−9 M and 10^−11 M. Cytokine concentrations (IFN-γ, IL-17 and IL-10 for T cells and IFN-γ for HaCat) were assessed in the supernatants using the Luminex technology. Expression of genes coding for Il-1β, IL-6 and TNF-α was determined. […] Moreover, concentrations of pro-inflammatory cytokines IFN-γ and IL-17 was reduced in the supernatants whereas the concentration of anti-inflammatory cytokine IL-10 was increased. […]
(§3) For the biological assay two human cell lines of different origin were chosen to allow for translation of the results obtained. A HaCaT cell is a cell type belonging to an immortal human keratinocyte line used in scientific research. Its use in research allows for the characterization of human keratinocyte using a model that is reproducible and representing a human epithelial cell line. In contrast human T-lymphocytes (T-cells) are a type of lymphocyte (itself a type of white blood cell) that play a central role in cell-mediated inflammation/immunity.

[2] = system: human keratinocyte cell line (HaCaT); assay: Cytokine secretion on protein level in activated human keratinocyte cell line HaCaT (13-plex FACS / Luminex, supernatant); format: cell-based; conditions: for IL-1 cytokine concentration / IL-2 cytokine concentration / IL-4 cytokine concentration / IL-5 cytokine concentration / IL-6 cytokine concentration / IL-9 cytokine concentration / IL-10 cytokine concentration / IL-12p70 cytokine concentration / IL-13 cytokine concentration / IL-17 cytokine concentration / IL-22 cytokine concentration / TNF-α cytokine concentration / IFN-γ cytokine concentration: substance 10^−9M
Experimental: as §1, §2, §3

[3] = system: primary murine T-cells; assay: Cytokine secretion on protein level in activated primary murine T-cells (13-plex FACS / Luminex, supernatant); format: cell-based, C57BL/6 mice; conditions: for IL-1 cytokine concentration / IL-2 cytokine concentration / IL-4 cytokine concentration / IL-5 cytokine concentration / IL-6 cytokine concentration / IL-10 cytokine concentration / IL-13 cytokine concentration / IL-17 cytokine concentration / IL-21 cytokine concentration / IL-22 cytokine concentration / IL-27 cytokine concentration / TNF-α cytokine concentration / IFN-γ cytokine concentration: substance 10^−9M
Experimental: as §1
In a third experiment murine and human T cells and HaCaT cells were stimulated with PMA/Ionomycin and treated with Examples 14, 15, 16 and 17 at 10^−7 M, 10^−9 M and 10^−11 M. Cytokine concentrations (IFN-γ, IL-17 and IL-10 for T cells and IFN-γ for HaCat) were assessed in the supernatants using the Luminex technology. Expression of genes coding for Il-1β, IL-6 and TNF-α was determined. […] Moreover, concentrations of pro-inflammatory cytokines IFN-γ and IL-17 was reduced in the supernatants whereas the concentration of anti-inflammatory cytokine IL-10 was increased.
The anti-inflammatory and immunomodulatory effects of selected examples of the present invention were compared with common immunosuppressants. Thus, cells activated with PMA/Ionomycin and IFN-γ, respectively, were stimulated with MMF or dexamethasone. Following stimulation the secretion of pro-inflammatory cytokines was analyzed on protein and gene level (Table 9 and FIGS. 4-6).

[4] = primary human T-cells stimulated with IFN-γ
[5] = primary human T-cells stimulated with PBS
[6] = primary human T-cells stimulated with PMA/Ionomycin
[7] = HaCaT stimulated with PMA/Ionomycin
[8] = primary murine T-cells stimulated with IFN-γ
[9] = primary murine T-cells stimulated with PBS
[10] = primary murine T-cells stimulated with PMA/Ionomycin

For H-(L)-Nle-(L)-Pro-Aib-OH [Example 12], the “secretion / expression of pro-inflammatory cytokines (supernatant)” value (“secretion / expression” for short) ([1]; activated primary human T-cells) was “able to reduce”, the IL-1 cytokine concentration [1, 4] was 44.77 pg/mL and the IL-2 cytokine concentration [1, 4] was 0 pg/mL. It also gave an IL-4 cytokine concentration [1, 4] of 0 pg/mL, an IL-5 cytokine concentration [1, 4] of 0 pg/mL and an IL-6 cytokine concentration [1, 4] of 60.44 pg/mL. For the same substance, the IL-9 cytokine concentration [1, 4] was 7.67 pg/mL, the IL-10 cytokine concentration [1, 4] was 84.25 pg/mL and the IL-12p70 cytokine concentration [1, 4] was 0 pg/mL. It also gave an IL-13 cytokine concentration [1, 4] of 0 pg/mL, an IL-17 cytokine concentration [1, 4] of 0 pg/mL and an IL-22 cytokine concentration [1, 4] of 0 pg/mL. The TNF-α cytokine concentration [1, 4] was 41.38 pg/mL, the IL-1 cytokine concentration [1, 5] was 0 pg/mL and the IL-2 cytokine concentration [1, 5] was 0 pg/mL. For the same substance, the IL-4 cytokine concentration [1, 5] was 0 pg/mL, the IL-5 cytokine concentration [1, 5] was 0 pg/mL and the IL-6 cytokine concentration [1, 5] was 91.86 pg/mL. For the same substance, the IL-9 cytokine concentration [1, 5] was 0 pg/mL, the IL-10 cytokine concentration [1, 5] was 189.65 pg/mL and the IL-12p70 cytokine concentration [1, 5] was 0 pg/mL. It also gave an IL-13 cytokine concentration [1, 5] of 0 pg/mL, an IL-17 cytokine concentration [1, 5] of 104.68 pg/mL and an IL-22 cytokine concentration [1, 5] of 0 pg/mL. The INF-α cytokine concentration [1, 5] was 0 pg/mL, the TNF-α cytokine concentration [1, 5] was 41.38 pg/mL and the IL-1 cytokine concentration [1, 6] was 548.85 pg/mL. It also gave an IL-2 cytokine concentration [1, 6] of 2751.28 pg/mL, an IL-4 cytokine concentration [1, 6] of 73.38 pg/mL and an IL-5 cytokine concentration [1, 6] of 328.24 pg/mL. It also gave an IL-6 cytokine concentration [1, 6] of 1046.79 pg/mL, an IL-9 cytokine concentration [1, 6] of 286.89 pg/mL and an IL-10 cytokine concentration [1, 6] of 992.02 pg/mL. The IL-12p70 cytokine concentration [1, 6] was 0 pg/mL, the IL-13 cytokine concentration [1, 6] was 1026.08 pg/mL and the IL-17 cytokine concentration [1, 6] was 1355.07 pg/mL. The IL-22 cytokine concentration [1, 6] was 0 pg/mL, the INF-α cytokine concentration [1, 6] was 9454.26 pg/mL and the TNF-α cytokine concentration [1, 6] was 2985.72 pg/mL. For the same substance, the “activity (reduction of pro-inflammatory cytokines) relative to K(D)PT” value ([1]; second experiment, all three cellular models) was “comparable”, the IL-1 cytokine concentration ([2]; HaCaT stimulated with IFN-γ) was 9.31 pg/mL and the IL-2 cytokine concentration ([2]; HaCaT stimulated with IFN-γ) was 0 pg/mL. For the same substance, the IL-4 cytokine concentration ([2]; HaCaT stimulated with IFN-γ) was 69.91 pg/mL, the IL-5 cytokine concentration ([2]; HaCaT stimulated with IFN-γ) was 0 pg/mL and the IL-6 cytokine concentration ([2]; HaCaT stimulated with IFN-γ) was 297.09 pg/mL. The IL-9 cytokine concentration ([2]; HaCaT stimulated with IFN-γ) was 0 pg/mL, the IL-10 cytokine concentration ([2]; HaCaT stimulated with IFN-γ) was 0 pg/mL and the IL-12p70 cytokine concentration ([2]; HaCaT stimulated with IFN-γ) was 0 pg/mL. The IL-13 cytokine concentration ([2]; HaCaT stimulated with IFN-γ) was 195.68 pg/mL, the IL-17 cytokine concentration ([2]; HaCaT stimulated with IFN-γ) was 56.13 pg/mL and the IL-22 cytokine concentration ([2]; HaCaT stimulated with IFN-γ) was 0 pg/mL. The TNF-α cytokine concentration ([2]; HaCaT stimulated with IFN-γ) was 0 pg/mL, the IFN-γ cytokine concentration ([2]; HaCaT stimulated with PBS) was 0 pg/mL and the IL-1 cytokine concentration ([2]; HaCaT stimulated with PBS) was 0 pg/mL. The IL-2 cytokine concentration ([2]; HaCaT stimulated with PBS) was 0 pg/mL, the IL-4 cytokine concentration ([2]; HaCaT stimulated with PBS) was 0 pg/mL and the IL-5 cytokine concentration ([2]; HaCaT stimulated with PBS) was 0 pg/mL. For the same substance, the IL-6 cytokine concentration ([2]; HaCaT stimulated with PBS) was 56.87 pg/mL, the IL-9 cytokine concentration ([2]; HaCaT stimulated with PBS) was 4.96 pg/mL and the IL-10 cytokine concentration ([2]; HaCaT stimulated with PBS) was 69.45 pg/mL. For the same substance, the IL-12p70 cytokine concentration ([2]; HaCaT stimulated with PBS) was 0 pg/mL, the IL-13 cytokine concentration ([2]; HaCaT stimulated with PBS) was 193.75 pg/mL and the IL-17 cytokine concentration ([2]; HaCaT stimulated with PBS) was 0 pg/mL. For the same substance, the IL-22 cytokine concentration ([2]; HaCaT stimulated with PBS) was 0 pg/mL, the TNF-α cytokine concentration ([2]; HaCaT stimulated with PBS) was 5.55 pg/mL and the IFN-γ cytokine concentration [2, 7] was 22.77 pg/mL. For the same substance, the IL-1 cytokine concentration [2, 7] was 0 pg/mL, the IL-2 cytokine concentration [2, 7] was 0 pg/mL and the IL-4 cytokine concentration [2, 7] was 0 pg/mL. It also gave an IL-5 cytokine concentration [2, 7] of 0 pg/mL, an IL-6 cytokine concentration [2, 7] of 158.4 pg/mL and an IL-9 cytokine concentration [2, 7] of 0 pg/mL. It also gave an IL-10 cytokine concentration [2, 7] of 86.04 pg/mL, an IL-12p70 cytokine concentration [2, 7] of 0 pg/mL and an IL-13 cytokine concentration [2, 7] of 0 pg/mL. The IL-17 cytokine concentration [2, 7] was 25.98 pg/mL, the IL-22 cytokine concentration [2, 7] was 0 pg/mL and the TNF-α cytokine concentration [2, 7] was 0 pg/mL. The “secretion / expression” value ([2]; activated human keratinocytes) was “able to reduce”, the “secretion / expression” value ([3]; activated primary murine T-cells) was “able to reduce” and the IL-1 cytokine concentration [3, 8] was 86.08 pg/mL. It also gave an IL-2 cytokine concentration [3, 8] of 88.9 pg/mL, an IL-4 cytokine concentration [3, 8] of 34.22 pg/mL and an IL-5 cytokine concentration [3, 8] of 221.57 pg/mL. For the same substance, the IL-6 cytokine concentration [3, 8] was 110.7 pg/mL, the IL-10 cytokine concentration [3, 8] was 1130.01 pg/mL and the IL-13 cytokine concentration [3, 8] was 0 pg/mL. The IL-17 cytokine concentration [3, 8] was 72.21 pg/mL, the IL-21 cytokine concentration [3, 8] was 40.2 pg/mL and the IL-22 cytokine concentration [3, 8] was 42.98 pg/mL. The IL-27 cytokine concentration [3, 8] was 12.5 pg/mL, the TNF-α cytokine concentration [3, 8] was 31.88 pg/mL and the IFN-γ cytokine concentration [3, 9] was 0 pg/mL. The IL-1 cytokine concentration [3, 9] was 61.52 pg/mL, the IL-2 cytokine concentration [3, 9] was 189.72 pg/mL and the IL-4 cytokine concentration [3, 9] was 32.24 pg/mL. For the same substance, the IL-5 cytokine concentration [3, 9] was 331.87 pg/mL, the IL-6 cytokine concentration [3, 9] was 223.98 pg/mL and the IL-10 cytokine concentration [3, 9] was 872.36 pg/mL. It also gave an IL-13 cytokine concentration [3, 9] of 0 pg/mL, an IL-17 cytokine concentration [3, 9] of 0 pg/mL and an IL-21 cytokine concentration [3, 9] of 69.64 pg/mL. The IL-22 cytokine concentration [3, 9] was 76.71 pg/mL, the IL-27 cytokine concentration [3, 9] was 71.85 pg/mL and the TNF-α cytokine concentration [3, 9] was 74.9 pg/mL. For the same substance, the IFN-γ cytokine concentration [3, 10] was 1298.02 pg/mL, the IL-1 cytokine concentration [3, 10] was 167.79 pg/mL and the IL-2 cytokine concentration [3, 10] was 98.57 pg/mL. It also gave an IL-4 cytokine concentration [3, 10] of 90.14 pg/mL, an IL-5 cytokine concentration [3, 10] of 242.24 pg/mL and an IL-6 cytokine concentration [3, 10] of 116.16 pg/mL. The IL-10 cytokine concentration [3, 10] was 1255.25 pg/mL, the IL-13 cytokine concentration [3, 10] was 0 pg/mL and the IL-17 cytokine concentration [3, 10] was 79.1 pg/mL. For the same substance, the IL-21 cytokine concentration [3, 10] was 0 pg/mL, the IL-22 cytokine concentration [3, 10] was 57.07 pg/mL and the IL-27 cytokine concentration [3, 10] was 80.09 pg/mL. The TNF-α cytokine concentration [3, 10] was 50.73 pg/mL.
